The values that follow come from paper PMC7956166, “Phage-Display Based Discovery and Characterization of Peptide Ligands against WDR5” (Molecules, 2021).

The target of the assay is T1, WDR5 (Homo sapiens, UniProt P61964).
T1 construct: DNA fragment encoding amino acids 23 to 483 of WDR5 subcloned in the pET-28a plasmid; His6 (N); SUMO (N); made in house; host or cells: Escherichia coli BL21(DE3)
Description: Fluorescence polarization (FP) competitive binding assay. As to conditions: for EC50: FP competitive assay vs fluorescently labeled tracer (2.5 nM), 0.2 M phosphate, 300 mM NaCl, 0.1% CHAPS, pH 6.5, 0.5 mM TCEP, 4 h incubation, 384-well plate, two independent experiments; for EC50 / Ki: mean ± standard error; for Ki: Ki from nonlinear regression fitting based on Kd of the probe, protein 5 nM. As for the experimental part:
The fluorescence polarization (FP) binding assays used to evaluate the ability of these cyclic peptides targeting protein WDR5 were carried out in the 384-well plate. We synthesized the fluorescently labeled positive compound [28, 29]: 1-((3′,6′-dihydroxy-3-oxo-3H-spiro[isobenzofuran-1,9′-xanthen]-5-yl)amino)-N-(3′-(3,5-dimethylbenzamido)-4′-(4-methylpiperazin-1-yl)-[1,1′-biphenyl]-4-yl)-1-thioxo-5,8,11-trioxa-2-azatetradecan-14-amide, which was used in direct binding assay against WDR5. 10 μL of 10 nM positive compound was added to 20 μL WDR5(the final concentration was 5 nM) in the buffer containing 0.2 M phosphate; 300 mM NaCl; 0.1%CHAPS; PH 6.5; 0.5 mM TCEP. Then the peptide compound to be tested was diluted in a gradient and added to each well with 10μL. Finally, the assay was carried out in 40 μL volume and the protein tracer mixture was incubated for 4 h before reading the plate. The fluorescence polarization was measured in Synergy™ Neo2 Multi-Mode Microplate Reader using an excitation filter at 485 nm and an emission filter at 535 nm. Each experiment was done two times and each polarization readings consisted of two averaged measurements. The reading is processed by the following formula:(1) Inhibition=C−F/C−B×100% where C is the anisotropy value of the fluorescence substrate bound to the protein completely, B is the anisotropy value of the fluorescence substrate, F is the corresponding anisotropy value after adding different concentrations of peptides. The data were plotted against the log peptide concentration and was fitted into a one site-Fit logIC50 equation with Graphpad Prim5 software using nonlinear regression model to obtain the competitive curve:(2) Y=A+B−A/1+10^(x−LogIC50) where x is log10 of the compound concentration in M, Y is the inflection point (EC50 or IC50), A is the bottom plateau effect, B is the top plateau effect. Potency (IC50/EC50) is the log of the concentration of competitor that results in binding half-way between bottom and top.
The EC50 values of peptides were determined in competitive binding experiments by nonlinear regression fitting of the competition curves as mentioned above. And Ki values of competitive inhibitors were obtained directly by nonlinear regression fitting, based upon the Kd values of the probe to different proteins and concentrations of the proteins and probes in the competitive assays. The data is processed by the following formula:(3) F0=P+L0+Kd−(P+L0+Kd)^2−4×P×L0/2×L0 (4) IC50/F0×Kd/(1−F0)(2−F0)+F0×L0/2=Ki(2−F0)/Kd×F0+1 where P is the proteins concentration in the assay (5 nM), L0 is the Tracer concentration in the assay (2.5 nM), F0 and the corresponding Ki value can be calculated according to the above formula.

The mark [1] stands for this setting: FP competitive assay, tracer 2.5 nM.

Positions of bridges follow the written chain, without caps; N, C: chain ends. Residues, ends and D or L forms follow the SMILES beside them. No end group written: not given here.

For `CC(C)C[C@@H]1NC(=O)[C@H]([C@@H](C)O)NC(=O)[C@H](CCCNC(=N)N)NC(=O)[C@@H](N)CSSC[C@@H](C(=O)O)NC(=O)[C@H](CC(N)=O)NC(=O)[C@H](CC(N)=O)NC(=O)[C@H](Cc2c[nH]c3ccccc23)NC(=O)[C@@H]2CCCN2C1=O` [D206179] (H-CRTLPWNNC-OH; disulfide 1-9), the EC50 (WDR5 5 nM) was 2300 ± 600 nM. In addition, the Ki under setting [1] is 500 ± 100 nM.
Take “CEKMVATHC (disulfide 1-9 (inferred)) [D206116, disulfide-constrained cyclic peptide from phage display, without “RT” motif]”: the “binding to WDR5 (in words)” value (FP competitive assay, WDR5 5 nM, tracer 2.5 nM, pH 6.5) is “unable to bind to WDR5”.
In the case of `CC(C)C[C@@H]1NC(=O)[C@H]([C@@H](C)O)NC(=O)[C@H](CCCNC(=N)N)NC(=O)[C@@H](N)CSSC[C@@H](C(=O)O)NC(=O)[C@H](CCC(=O)O)NC(=O)[C@H](Cc2c[nH]cn2)NC(=O)[C@H](Cc2ccccc2)NC(=O)[C@@H]2CCCN2C1=O` [D206115] (H-CRTLPFHEC-OH; disulfide 1-9), for the setting “WDR5 5 nM”, the concentration for a half-maximal effect (EC50) turned out to be 5900 ± 200 nM. Besides, the Ki under setting [1] is 1200 ± 40 nM.
For `CC(C)C[C@@H]1NC(=O)[C@H]([C@@H](C)O)NC(=O)[C@H](CCCNC(=N)N)NC(=O)[C@@H](N)CSSC[C@@H](C(=O)O)NC(=O)[C@H](CO)NC(=O)CNC(=O)[C@H](Cc2ccccc2)NC(=O)[C@@H]2CCCN2C1=O` [D206181] (H-CRTLPFGSC-OH; disulfide 1-9), in that order: 4400 ± 400 nM and 900 ± 80 nM.
For the molecule `CC(C)C[C@@H]1NC(=O)[C@H]([C@@H](C)O)NC(=O)[C@H](CCCNC(=N)N)NC(=O)[C@@H](N)CSSC[C@@H](C(=O)O)NC(=O)[C@H](C)NC(=O)CNC(=O)[C@H](Cc2ccc(O)cc2)NC(=O)[C@@H]2CCCN2C1=O` [D206180] (H-CRTLPYGAC-OH; disulfide 1-9), the EC50 (WDR5 5 nM) was 2700 ± 200 nM. For the same molecule, the Ki under setting [1] was found to be 500 ± 50 nM.
